Source: patent US5120730A, “Benzothiazepine esters, their preparation and formulations for therapeutic use” (IdB Holding SpA, priority 1990, dated 1992)
Entries after “also recorded” stand apart in the source; their conditions may differ. Where two headings read alike, the source gives them in different places.

Key:
[1] = tested on: isolated guinea pig atria; test: Isolated guinea pig atria: force and frequency of spontaneous contractions; parameters: species or system guinea pig (Hartley-Dunkin); conditions: for IC25 / inhibition at 10 µM / activation at 10 µM: Cavia porcellus; for IC25 / activity on force and frequency of the contractions (in words): isolated guinea pig atria; for IC25: n = 6; for inhibition at 10 µM: read-out: negative chronotropic effect; for activation at 10 µM: read-out: positive inotropic effect
Experimental: 1. The atria taken from Hartley-Dunkin guinea pigs of average weight 400-450 g were placed in an isolated organ bath of 15 ml containing a physiological Krebs solution (J. C. Doxey et al., Br. J. Pharmac. 78, 498, 1983) at a temperature of 30°±0.5° and oxygenated by means of a gaseous mixture composed of 95% of O2 and 5% of CO2. The force and frequency of the spontaneous contractions (T. De Gubareff and W. Sleaton Jr., J. Pharm. Exp. Ther., 148, 202, 1965) were recorded by means of an isometric force transducer. The concentration of product required to reduce the contraction force and frequency by 25% (IC25) and the relevant pIC25 were calculated.

[2] = tested on: isolated rat portal vein; test: Isolated rat portal vein: force of spontaneous contraction; parameters: species or system rat (Sprague-Dawley); conditions: for IC50 / inhibition of contraction force (in words): isolated rat portal vein; for IC50: 50% reduction of contraction force, n = 6, read-out: Contraction force pIC50 (converted); for selectivity, isolated vessels vs atria (in words): comparison of rat portal vein with guinea pig atria
From the text: 2. 2-3 cm strips of portal vein were taken from Sprague-Dawley rats of 220-250 g weight.

[3] = Haemodynamics in anaesthetized rats; type: in vivo, rat (Sprague-Dawley); conditions: for change in BP (systemic arterial pressure) / change in HR (heart rate) / change in LVP (left intraventricular pressure) / change in dp/dt: n = 6
Experimental: Male Sprague-Dawley rats of average weight 350-400 g, anaesthetized with sodium pentobarbital in an intraperitoneal dose of 60 mg/kg, underwent cannulation for measuring the following parameters: systemic arterial pressure (BP), heart rate (HR) left intraventricular pressure (LVP) and dp/dt.
After recording of the baseline values, the substances were injected by the intravenous route within a time of 30 seconds. The changes in the parameters indicated above were measured at times of 0.5-2-10 and 20 minutes.

[4] = rats
From the text: (§1) Sprague-Dawley rats of both sexes (5 male+5 female) were used for each experimental group.

[5] = in vivo; conditions: rat
From the text: as §1

For COc1ccc([C@@H]2Sc3ccccc3N(CCN(C)C)C(=O)[C@@H]2OC(C)=O)cc1 [Diltiazem, (+)-Cis-5-[2-(dimethylamino)ethyl]-3-acetoxy-2,3-dihydro-2-(4-methoxyphenyl)-1,5-benzothiazepin-4(5H)-one, reference compound], the IC25 ([1]; 25% reduction of contraction force, read-out: Contraction force pIC25 (converted)) was 513 nM, the IC25 ([1]; 25% reduction of contraction frequency, read-out: Frequency pIC25 (converted)) was 355 nM and the “activity on force and frequency of the contractions (in words)” value (“activity on force and frequency” below) [1] was “significant activity”. For the same compound, the IC50 [2] was 813 nM, the “change in BP (systemic arterial pressure)” value (“change in BP” for short) ([3]; 0.35 μmol/kg i.v., 0.5 minutes) was -21 mmHg and the “change in HR (heart rate)” value ([3]; 0.35 μmol/kg i.v., 0.5 minutes) was -4 bpm. The “change in LVP (left intraventricular pressure)” value (“change in LVP” for short) ([3]; 0.35 μmol/kg i.v., 0.5 minutes) was -18 mmHg, the change in dp/dt ([3]; 0.35 μmol/kg i.v., 0.5 minutes) was -150 mmHg/sec and the “change in BP” value ([3]; 0.35 μmol/kg i.v., 2 minutes) was -1 mmHg. For the same compound, the “change in HR (heart rate)” value ([3]; 0.35 μmol/kg i.v., 2 minutes) was “+6 bpm”, the “change in LVP” value ([3]; 0.35 μmol/kg i.v., 2 minutes) was -1 mmHg and the change in dp/dt ([3]; 0.35 μmol/kg i.v., 2 minutes) was -25 mmHg/sec. The “change in BP” value ([3]; 0.35 μmol/kg i.v., 10 minutes) was “+6 mmHg”, the “change in HR (heart rate)” value ([3]; 0.35 μmol/kg i.v., 10 minutes) was “+10 bpm” and the “change in LVP” value ([3]; 0.35 μmol/kg i.v., 10 minutes) was “+2 mmHg”. For the same compound, the change in dp/dt ([3]; 0.35 μmol/kg i.v., 10 minutes) was -17 mmHg/sec, the “change in BP” value ([3]; 0.35 μmol/kg i.v., 20 minutes) was “+1 mmHg” and the “change in HR (heart rate)” value ([3]; 0.35 μmol/kg i.v., 20 minutes) was “+3 bpm”. The “change in LVP” value ([3]; 0.35 μmol/kg i.v., 20 minutes) was -5 mmHg, the change in dp/dt ([3]; 0.35 μmol/kg i.v., 20 minutes) was -183 mmHg/sec and the “effect on all observed parameters (in words)” value ([3]; 0.7 μmol/kg i.v.) was “significantly reduces all the observed parameters”. For the same compound, the “effect on heart rate and contractility (in words)” value ([3]; 0.7 μmol/kg i.v.) was “significant cardiodepressive effect”, the “change in BP” value ([3]; 0.70 μmol/kg i.v., 0.5 minutes) was -52 mmHg and the “change in HR (heart rate)” value ([3]; 0.70 μmol/kg i.v., 0.5 minutes) was -83 bpm. The “change in LVP” value ([3]; 0.70 μmol/kg i.v., 0.5 minutes) was -46 mmHg, the change in dp/dt ([3]; 0.70 μmol/kg i.v., 0.5 minutes) was -658 mmHg/sec and the “change in BP” value ([3]; 0.70 μmol/kg i.v., 2 minutes) was -34 mmHg. For the same compound, the “change in HR (heart rate)” value ([3]; 0.70 μmol/kg i.v., 2 minutes) was -99 bpm, the “change in LVP” value ([3]; 0.70 μmol/kg i.v., 2 minutes) was -24 mmHg and the change in dp/dt ([3]; 0.70 μmol/kg i.v., 2 minutes) was -375 mmHg/sec. For the same compound, the “change in BP” value ([3]; 0.70 μmol/kg i.v., 10 minutes) was -16 mmHg, the “change in HR (heart rate)” value ([3]; 0.70 μmol/kg i.v., 10 minutes) was -5 bpm and the “change in LVP” value ([3]; 0.70 μmol/kg i.v., 10 minutes) was -4 mmHg. The change in dp/dt ([3]; 0.70 μmol/kg i.v., 10 minutes) was -108 mmHg/sec, the “change in BP” value ([3]; 0.70 μmol/kg i.v., 20 minutes) was “+9 mmHg” and the “change in HR (heart rate)” value ([3]; 0.70 μmol/kg i.v., 20 minutes) was “+7 bpm”. The “change in LVP” value ([3]; 0.70 μmol/kg i.v., 20 minutes) was -7 mmHg and the change in dp/dt ([3]; 0.70 μmol/kg i.v., 20 minutes) was -92 mmHg/sec.

For COc1ccc([C@@H]2Sc3ccccc3N(CCN(C)C)C(=O)[C@@H]2OC(=O)CCC(=O)O[C@H]2C(=O)N(CCN(C)C)c3ccccc3S[C@H]2c2ccc(OC)cc2)cc1 (relative stereo) [Ib, 3,3'-[(1,4-dioxo-1,4-butanediyl)-bis(oxy)] bis[(+)-cis-5-[2-(dimethylamino)ethyl]-2,3-dihydro-2-(4-methoxyphenyl)-1,5-benzothiazepin-4(5H)-one]], the inhibition at 10 µM [1] was 5%, the activation at 10 µM [1] was 12% and the “activity on force and frequency” value [1] was “virtually inactive; also recorded: free of the negative chronotropic and inotropic effects”. For the same compound, the “selectivity, isolated vessels vs atria (in words)” value [2] was “selective activity on the isolated vessels”, the “inhibition of contraction force (in words)” value [2] was “antagonize the contraction force in a dose-dependent manner; also recorded: significantly inhibit the contraction force” and the IC50 [2] was 2340 nM. The “toxicity versus diltiazem, intraperitoneal (in words)” value [4] was “less toxic than the reference product”, the “toxicity versus diltiazem, oral (in words)” value [4] was “LD50 comparable with that of diltiazem” and the LD50 at 336 h ([5]; ip) was 600 mg/kg. For the same compound, the LD50 at 336 h ([5]; po) was 881 mg/kg.

In the case of COc1ccc([C@@H]2Sc3ccccc3N(CCN(C)C)C(=O)[C@@H]2OC(=O)/C=C/C(=O)O[C@H]2C(=O)N(CCN(C)C)c3ccccc3S[C@H]2c2ccc(OC)cc2)cc1 [Ia, 3,3'-[(2E)-(1,4-dioxo-1,4-butenediyl)-bis(oxy)]bis[(+)-cis-5-[2-(dimethylamino)ethyl]-2,3-dihydro-2-(4-methoxyphenyl)-1,5-benzothiazepin-4-(5H)-one]], the inhibition at 10 µM [1] is reported as 5%, the activation at 10 µM [1] is reported as 6% and the “activity on force and frequency” value [1] is reported as “virtually inactive; also recorded: free of the negative chronotropic and inotropic effects”. The “selectivity, isolated vessels vs atria (in words)” value [2] was “selective activity on the isolated vessels”, the “inhibition of contraction force (in words)” value [2] was “antagonize the contraction force in a dose-dependent manner; also recorded: significantly inhibit the contraction force” and the IC50 [2] was 3980 nM. The “change in BP” value ([3]; 0.35 μmol/kg i.v., 0.5 minutes) was -32 mmHg, the “change in HR (heart rate)” value ([3]; 0.35 μmol/kg i.v., 0.5 minutes) was -19 bpm and the “change in LVP” value ([3]; 0.35 μmol/kg i.v., 0.5 minutes) was -29 mmHg. For the same compound, the change in dp/dt ([3]; 0.35 μmol/kg i.v., 0.5 minutes) was -31 mmHg/sec, the “change in BP” value ([3]; 0.35 μmol/kg i.v., 2 minutes) was -16 mmHg and the “change in HR (heart rate)” value ([3]; 0.35 μmol/kg i.v., 2 minutes) was -19 bpm. The “change in LVP” value ([3]; 0.35 μmol/kg i.v., 2 minutes) was -11 mmHg, the change in dp/dt ([3]; 0.35 μmol/kg i.v., 2 minutes) was -20 mmHg/sec and the “change in BP” value ([3]; 0.35 μmol/kg i.v., 10 minutes) was “+2 mmHg”. For the same compound, the “change in HR (heart rate)” value ([3]; 0.35 μmol/kg i.v., 10 minutes) was -9 bpm, the “change in LVP” value ([3]; 0.35 μmol/kg i.v., 10 minutes) was -2 mmHg and the change in dp/dt ([3]; 0.35 μmol/kg i.v., 10 minutes) was -67 mmHg/sec. For the same compound, the “change in BP” value ([3]; 0.35 μmol/kg i.v., 20 minutes) was -8 mmHg, the “change in HR (heart rate)” value ([3]; 0.35 μmol/kg i.v., 20 minutes) was -14 bpm and the “change in LVP” value ([3]; 0.35 μmol/kg i.v., 20 minutes) was -11 mmHg. For the same compound, the change in dp/dt ([3]; 0.35 μmol/kg i.v., 20 minutes) was -25 mmHg/sec, the “effect on heart rate and contractility (in words)” value ([3]; 0.7 μmol/kg i.v.) was “without altering the heart rate and contractility parameters” and the “hypotensive activity (in words)” value ([3]; 0.7 μmol/kg i.v.) was “significant and lasting hypotensive activity”. The “change in BP” value ([3]; 0.70 μmol/kg i.v., 0.5 minutes) was -32 mmHg, the “change in HR (heart rate)” value ([3]; 0.70 μmol/kg i.v., 0.5 minutes) was -19 bpm and the “change in LVP” value ([3]; 0.70 μmol/kg i.v., 0.5 minutes) was -33 mmHg. For the same compound, the change in dp/dt ([3]; 0.70 μmol/kg i.v., 0.5 minutes) was -15 mmHg/sec, the “change in BP” value ([3]; 0.70 μmol/kg i.v., 2 minutes) was -33 mmHg and the “change in HR (heart rate)” value ([3]; 0.70 μmol/kg i.v., 2 minutes) was -11 bpm. For the same compound, the “change in LVP” value ([3]; 0.70 μmol/kg i.v., 2 minutes) was -32 mmHg, the change in dp/dt ([3]; 0.70 μmol/kg i.v., 2 minutes) was -20 mmHg/sec and the “change in BP” value ([3]; 0.70 μmol/kg i.v., 10 minutes) was -22 mmHg. The “change in HR (heart rate)” value ([3]; 0.70 μmol/kg i.v., 10 minutes) was -13 bpm, the “change in LVP” value ([3]; 0.70 μmol/kg i.v., 10 minutes) was -32 mmHg and the change in dp/dt ([3]; 0.70 μmol/kg i.v., 10 minutes) was -16 mmHg/sec. The “change in BP” value ([3]; 0.70 μmol/kg i.v., 20 minutes) was -25 mmHg, the “change in HR (heart rate)” value ([3]; 0.70 μmol/kg i.v., 20 minutes) was -9 bpm and the “change in LVP” value ([3]; 0.70 μmol/kg i.v., 20 minutes) was -32 mmHg. The change in dp/dt ([3]; 0.70 μmol/kg i.v., 20 minutes) was -20 mmHg/sec, the “selectivity of action (in words)” value ([3]; conclusion from in vivo and in vitro results) was “selective action on the smooth vessel musculature” and the “toxicity versus diltiazem, intraperitoneal (in words)” value [4] was “less toxic than the reference product”. For the same compound, the “toxicity versus diltiazem, oral (in words)” value [4] was “less toxic”, the LD50 at 336 h ([5]; ip) was 250 mg/kg and the LD50 at 336 h ([5]; po) was over 1500 mg/kg.
